Results on three compounds are retold here after article PMC9822434, “Estradiol-Based Salicylaldehyde (Thio)Semicarbazones and Their Copper Complexes with Anticancer, Antibacterial and Antioxidant Activities” (Molecules, 2022).

For data set [1], the system named is MCF-7 KCR. Briefly: MTT cytotoxicity assay. The data set is classed as cell-based, human. Conditions: for IC50: 24 h incubation time. The method, then:
(§1) To test the biological effects of the Cu(II) complexes and the ligands on human cancer cells, DU-145 prostate, A549 lung, and MCF-7 breast adenocarcinoma cells, as well as the multidrug-resistant MCF-7 KCR breast cancer cells were utilized. All the cell lines were maintained in RPMI-1640 media (Biosera, Nuaille, France) complemented with 10% fetal bovine serum (FBS), 2 mM L-glutamine, 0.01% streptomycin and 0.005% penicillin, (Biosera, Nuaille, France) and were cultured under standard conditions in a 37 °C incubator at 5% CO2 and 95% humidity. The cell lines were originally obtained from ATCC.
(§2) The effect of the complexes and of their ligands alone on the viability (on the metabolic activity) of human cancer cells was assessed by MTT assay. The tested compounds were dissolved in 90% (v/v) DMSO/H2O at 10 mM concentration. Equimolar solutions of the ligand CuCl2 salt were used for the cytotoxicity assays. The metal salts without ligands were also tested. For this, 1 × 10^4 cells/well were seeded into 96-well plates and left to grow overnight. On the following day, cells were exposed to increasing concentrations of each compound (0; 2.5; 5; 10; 15; 20 µM). After a 24 h incubation, cells were washed with PBS buffer and then incubated with 0.5 mg/mL MTT (Sigma-Aldrich, St Louis, Missouri, MO, USA) for 1 h at 37 °C. The formazan crystals were solubilized in DMSO (Molar Chemicals, Halásztelek, Hungary), and the absorbance of samples was determined at 570 nm using a Synergy HTX plate reader (BioTek, Winooski, Vermont, VT, USA). Absorption corresponding to the untreated control samples was considered as 100%.

Data set [2] concerns DU-145. Briefly: MTT cytotoxicity assay. It counts as cell-based, human. Particulars: DU-145, MTT; for IC50: 24 h incubation time. The protocol: as §1, §2
Data set [3] has as its system MCF-7. Briefly: MTT cytotoxicity assay. It counts as cell-based, human. Particulars: MCF-7, MTT; for IC50: 24 h incubation time. The method, then:
as §1, §2

Data set [4] has as its system A549. Briefly: MTT cytotoxicity assay. The data set is classed as cell-based, human. Conditions: for IC50: 24 h incubation time. The method, then: as §1, §2
Data set [5] can be described thus: cyclic voltammetry of Cu(II)-(T)SC (1:1) systems. The data set is classed as physicochemical. Particulars: 90% (v/v) DMSO/H2O, pH 7.40 (10 mM HEPES), 10 mV/s, 25 °C, I = 0.1 M (nBu4NPF6). The method, then:
Cyclic voltammograms of TSCs derivatives and their Cu(II) complexes at 25.0 ± 0.1 °C were recorded. nBu4NPF6 was used as a supporting electrolyte, and measurements were performed at pH 7.4. The complexes were obtained by mixing the ligand dissolved in DMSO with aqueous solution of CuCl2 in 1:1 ratio. The final concentration of stock was 1 mM. Measurements were performed on a conventional three-electrode system under argon atmosphere using an Autolab PGSTAT 204 potentiostat/galvanostat monitored with Metrohm’s Nova software. Samples were purged for 10 min with argon before recording the cyclic voltammograms. Platinum electrode was used as the working and auxiliary electrode and Ag/AgCl/3 M KCl as the reference electrode. The electrochemical system was calibrated with an aqueous solution of K3[Fe(CN)6] (E1/2 = +0.458 V vs. NHE). Redox potentials were obtained at 10 mV/s scan rate in the range of −1.3 to +0.8 V.

The nature of data set [6]: direct redox reaction of the Cu(II) complexes with ascorbic acid (UV–vis, anaerobic). Conditions: Cu(II) complex 25 µM, 50 equiv. ascorbic acid, pH 7.4, 30% (v/v) DMSO/H2O. The data set is classed as physicochemical. The method, then: (§3) The redox reaction of the Cu(II) complexes with GSH and ascorbic acid was studied at 25.0 ± 0.1 °C, at pH 7.40 (10 mM HEPES with 0.1 M KCl) on an Agilent Cary 8454 diode array spectrophotometer using a special, tightly closed tandem cuvette (Hellma Tandem Cell, 238-QS). The complex and the reducing agent were separated until the reaction was triggered. Both isolated pockets of the tandem cuvette were completely deoxygenated by bubbling argon for 10 min before mixing the reactants. Spectra were recorded before and then immediately after the mixing, and changes were followed till no further absorbance change was observed. The stock solutions of the reducing agents and the complexes were freshly prepared every day.

Data set [7] concerns E. faecalis ATCC 29212. Briefly: MIC determination. It counts as cell-based, Enterococcus faecalis. Particulars: Gram-positive E. faecalis ATCC 29212; Mueller Hinton Broth. The protocol:
(§4) Klebsiella pneumoniae (ATCC 49619), Escherichia coli (ATCC 25922), Staphylococcus aureus (ATCC 25928) and Enterococcus faecalis (ATCC 29212) strains were used as Gram-negative and Gram-positive bacterial cultures. The stock solutions of the tested compounds (dissolved in 90% (v/v) DMSO/H2O at 10 mM concentration) were diluted in 100 μL of Mueller Hinton Broth, and then two-fold serial dilutions were performed. As a starting point, 100 μM concentration of the compounds was used. Then, 10^−4 dilution of an overnight bacterial culture in 100 μL of medium was added to each well, with the exception of the medium control wells. Minimum inhibitory concentration (MIC) values of compounds were determined according to our previous work.

The subject of data set [8] is S. aureus ATCC 25928. Briefly: MIC determination. It counts as cell-based, Staphylococcus aureus. Particulars: Gram-positive S. aureus ATCC 25928; Mueller Hinton Broth. The protocol:
as §4

The nature of data set [9]: DPPH free radical scavenging assay. Particulars: for % Scavenging Effect: DPPH:compound = 1:1 ratio after 30 min, ethanol; for IC50: in ethanol, T = 25 °C, cDPPH = 50 µM, ccompound = 5−50 µM. The protocol:
The DPPH (Sigma-Aldrich) free radical scavenging capacity was studied at 25.0 ± 0.1 °C on an Agilent Cary 3500 spectrophotometer with tightly closed tandem cuvette according to our approach with some modifications. The stock solution of DPPH (100 µM) was prepared in ethanol, and 0.5 mL of this solution was added to one pocket of the cuvette and 0.5 mL of the tested compound in different concentrations in ethanol was added to another. The final concentration of the studied compounds was in the range 5–50 µM, where for DPPH concentration, it was always 50 µM. A standard compound Trolox (Sigma-Aldrich) was used as a positive control. The percentage of the antioxidant activity (AA), IC50 values (the concentration of compound at which it reduced 50% of DPPH) and Trolox equivalent antioxidant capacity (TEAC) were calculated.

Data set [10] in a line: direct redox reaction of the Cu(II) complexes with GSH (UV–vis, anaerobic). Conditions: Cu(II) complex (25 µM) of the named ligand with GSH (1.25 mM), pH 7.4, anaerobic, 30% (v/v) DMSO/H2O, 25.0 °C. It counts as physicochemical. The method, then:
as §3
During the calculations, the absorbance (A)−time (t) curves were fitted and analyzed at the λmax of the complex. (A0 − Afinal) × e ^(−a×t) + Afinal equation was used where A0, Afinal and a parameters were refined and accepted at the minimal value of the weighted sum of squared residuals (difference between the measured and calculated absorbance values) at the given wavelength. Then observed rate constants (kobs) of the redox reaction were obtained from the data points of the simulated absorbance–time curves as the slope of the ln(A/A0) versus t plots.

The subject of data set [11] is A549, MCF-7, MCF-7 KCR and DU-145 cells. Briefly: γH2AX immunostaining (DNA double-strand breaks). It counts as cell-based, human. Particulars: 20 µM, 3 h. The protocol: In order to determine the degree of DNA damage induced by the treatments, DNA double-strand breaks were visualized by γH2AX immunostaining. For this, 1 × 10^5 cells/well were seeded onto coverslips in 24-well plates. […] Then, cells were fixed with 4% formaldehyde (Molar Chemicals, Halásztelek, Hungary), permeabilized with 0.3% Triton-X-100 (Calbiochem, Merck Millipore, Darmstadt, Germany) and were blocked using 5% bovine serum albumin (BSA) (Sigma-Aldrich, St. Louis, MO, USA). Then, the samples were incubated with anti-γH2AX antibody (Thermo Fisher Scientific, Waltham, MA, USA) in 1:300 dilution followed by Alexa 488 fluorophore-conjugated goat anti-mouse secondary antibody (Abcam, Cambridge, UK) in 1:600 dilution. The fluorescence intensity of the stained samples was detected by an Olympus FV10i confocal microscope.

The test system of data set [12] is DU-145 cells. Briefly: DCFDA staining (intracellular ROS). The data set is classed as cell-based, human. Particulars: DU-145, 20 µM, 6 h. The method, then: (§5) DCFDA staining assay was performed to measure the total intracellular ROS level upon treatments. For this, 1 × 10^5 cells/well were seeded onto coverslips (VWR International, Radnor, Pennsylvania, PA, USA) placed in 24-well plates and left to grow. […] After treatments, cells were washed with PBS then incubated for 1 h with 10 μM DCFDA solution. The fluorescence intensity of the samples was assessed by an OLYMPUS BX51 microscope with Olympus DP70 camera and was quantified using ImageJ software.

Data set [13] concerns A549 cells. Briefly: DCFDA staining (intracellular ROS). Conditions: A549, 20 µM, 6 h. It counts as cell-based, human. The protocol:
as §5

Data set [14] relates to MCF-7 KCR cells. Briefly: DCFDA staining (intracellular ROS). It counts as cell-based, human. Conditions: 20 µM, 6 h. The protocol:
as §5

For data set [15] the following is noted: cited from earlier work.
The format of data set [16] is physicochemical. Conditions: cligand = 20 µM. The method, then:
An Orion 710A pH-meter equipped with a Metrohm combined electrode (type 6.0234.100) and a Metrohm 665 Dosimat burette were used for the UV–vis titrations at 25.0 ± 0.1 °C. Ionic strength of 0.10 M (KCl) was used to keep the activity coefficients constant. The titrations were performed with carbonate-free KOH solution of known concentration (0.10 M) with 30% (v/v) DMSO content. […] The average water ionization constant (pKw) is 14.54 ± 0.05 in the 30% (v/v) DMSO/H2O mixture. Argon was always passed over the solutions during the titrations. An Agilent Cary 8454 diode array spectrophotometer was used to record the UV–vis spectra at an interval of 200–800 nm. The path length was 2 cm. Spectrophotometric titrations were performed using a 0.1 M KOH titrant solution with 30% (v/v) DMSO on samples with 30% (v/v) DMSO containing HCl, KCl and the ligand at 20 μM concentration in the pH range 2.0–12.5 in the absence or in the presence of 1 or 0.5 equiv. Cu(II) ions. Proton dissociation constants (Ka) of the TSC ligands, the overall stability constants (β) of the Cu(II) complexes and the UV–vis spectra of the individual species were calculated by the computer program PSEQUAD [41] as was done in our previous works.

For data set [17] the following is noted: Cu(II) complex (25 µM) with GSH (1.25 mM), pH 7.4, anaerobic; cited from earlier work.
Setting [18] is: 30% (v/v) DMSO/H2O, T = 25.0 °C, I = 0.1 M (KCl).

Molecules are shown by their SMILES. Read-outs that look alike come from different tables or passages of the source. A value given as a limit tells only on which side of the number the result lay.

For `C[C@]12CC[C@@H]3c4cc(/C=N/N=C(N)[O-])c([O-])cc4CC[C@H]3[C@@H]1CC[C@@H]2O.O.[Cu+2]` [Cu(II)-estradiol-SC], the half-inhibitory concentration (IC50) in data set [1] was > 20 µM; in data set [2] it was > 20 µM; in data set [3], > 20 µM; in data set [4], > 20 µM; in data set [9] it was > 50 µM. The “effect on cell viability (in words)” value is given as “only slightly toxic” in [1] (up to 20 µM, 24 h); “neither the estradiol-SC nor the Cu(II)-estradiol-SC complex exhibit any harmful effect” in data set [2] (up to 20 µM, 24 h); “neither the estradiol-SC nor the Cu(II)-estradiol-SC complex exhibit any harmful effect” in [3] (up to 20 µM, 24 h); “only slightly toxic” in data set [4] (up to 20 µM, 24 h). The “formal potential E’ vs. Ag/AgCl/3M KCl” value in data set [5] is reported as “+0.10 V”. Besides, the “reduction by ascorbic acid (in words)” value in data set [6] is recorded as “remarkable spectral changes”. The MIC in [7] is >100 µM; in [8], 50 µM. Also, the “% Scavenging Effect” value in [9] (25 °C) is recorded as 8.5%. For the same compound, the kobs result in data set [10] is recorded as “rapid reduction of Cu(II)”.
`C[C@]12CC[C@@H]3c4cc(/C=N/N=C(N)[S-])c([O-])cc4CC[C@H]3[C@@H]1CC[C@@H]2O.O.[Cu+2]` [Cu(II)-estradiol-TSC]: the IC50 in data set [1] is 13 ± 1.09 µM; in data set [2], > 20 µM; in data set [3] it was 8.4 ± 1.11 µM; in data set [4] it was 10 ± 1.04 µM; in data set [9], 15.7 µM. Besides, the “formal potential E’ vs. Ag/AgCl/3M KCl” value in [5] was “+0.31 V”. Besides, in data set [11], the “DNA double-strand breaks (γH2AX) vs untreated control cells” value is “None of these treatments caused a higher degree of DNA damage”. Further, the MIC in data set [7] came out at 12.5 µM; in data set [8] it was 3.125 µM. Besides, the “TEAC (Trolox equivalent antioxidant capacity)” value in data set [9] (DPPH assay in ethanol, 25 °C) was determined as 0.8. Further, in data set [9] (25 °C), the “% Scavenging Effect” value was found to be 90.8%. In addition, the “intracellular amount of ROS vs DMSO control” value in [12], in data set [13] and in data set [14] was “significantly increased” throughout.
Take `CC12CCC3c4cc(C=NNC(N)=O)c(O)cc4CCC3C1CCC2=O` (centres unmarked) [estrone-SC]: in data set [15] (setting [18]), the “logβ [CuLH−1]” value was 4.82 ^1 and the “logβ [CuL]+” value is listed as 11.26 ^1. Besides, the pCu7.4 in data set [15] (pH 7.4, cCu(II) = 20 µM, cligand = 20 µM) is reported as 7.5 ^1. In addition, the pCu5.0 in data set [16] (calculated at pH 5.0, cCu(II) = 20 µM) is given as 5.8. Also, the pCu6.0 in data set [16] (estimated at pH 6.0, cCu(II) = 20 µM) was 6.3. The kobs entry in data set [17] is recorded as “fast reaction ^1”.
